# Laboratory results: patent publication US20110154513A1, “PROBE FOR VISUALIZING NEURAL ACTIVITY” (University of Toyama, priority 2008, published 2011)
# Experiments:
# hippocampal nerve cells = assay: Luminescence (photon count) of probes expressed in cultured hippocampal nerve cells after stimulation; type: cell-based, rat
# Method: On day 18 of pregnancy, a rat fetus was taken out of a pregnant rat, and the brain was separated therefrom in cold PBS. Furthermore, brain slices containing hippocampal nerve cells were separated from the cerebrum. The separated hippocampal cells were reacted with 0.125% trypsin (protease) at room temperature for 20 minutes in a test tube such that adhesion factors on the cell surface were degraded to attenuate cell-cell adhesion. Then, the test tube was left standing for trypsin removal. After precipitation of the brain slices in the bottom of the test tube, the trypsin solution as a supernatant was removed by aspiration. Subsequently, a DMEM medium containing 10% serum was added to the test tube. The test tube was left standing again, and the supernatant was removed. The brain slices were dissociated into individual cells by repeating approximately 10 times aspiration and dropping using a plastic dropper. Then, the cells were cultured in a plastic dish.
# On culture day 4, the plasmid encoding the fusion protein 1 of Example 1 was gene-transferred into the cells. The gene transfer method was performed using Lipofectamine 2000 in the same way as in the HEK293 cells. Two days after the gene transfer, the medium was replaced by an Opti-MEM medium (Invitrogen Corp.) containing 0.5 mM luciferin EF (Promega Corp.), a luminescent substrate of luciferase. The luminescence intensity was measured using a luminometer AEQUORIA (Hamamatsu Photonics K.K.). This apparatus counts the number of photons generated from cells during culture placed together with a plastic dish in a dark box. The measurement was performed for 1 consecutive hour, and the luminescence intensity at 1-minute intervals was plotted on the ordinate of a graph. Immediately before the measurement, the cells were stimulated with forskolin, glutamate, KCl, or the like.
# actin polymerization = assay: Luminescence of IRES-linked split luciferase-actin fusion proteins in HEK293 cells with actin polymerization inhibitor; type: cell-based; conditions: inhibitor added 3 hours before measurement, varying concentrations
# From the text: FIG. 7 is a graph showing results of Example 8. The graph depicts the relationship between an actin polymerization inhibitor concentration and luminescence from split luciferase-actin fusion proteins bound via an IRES sequence and expressed in HEK293 cells;
# For preparing a form suitable for transgenic mouse preparation, plasmids were constructed for a fusion protein comprising two fusion proteins bound via an IRES sequence (the resultant fusion protein is referred to as a fusion protein 13: LucN-Actin-IRES-LucC-actin). LucC-Actin and LucN-Actin are thereby translated from one mRNA and expressed in cells. The gene transfer was performed in the same way as in Example 1. Moreover, in this experiment, an actin polymerization inhibitor latrunculin A was added into a medium 3 hours before luminescence measurement. Moreover, the luminescence measurement used a luminometer AEQUORIA (Hamamatsu Photonics K.K.).
# This is the evidence that the luminescence of the prepared protein serves as an index for actin polymerization.
# polymerized actin = assay: Rhodamine-phalloidin staining of polymerized actin in HEK293T cells; type: cell-based; conditions: varying concentrations of inhibitor
# Method: FIG. 8 is a photograph showing results of Example 9. The photograph is an image of polymerized actin stained with rhodamine-phalloidin in the presence of varying concentrations of a polymerization inhibitor;
# HEK293T cells were treated with latrunculin A and then fixed in 4% paraformaldehyde, and only polymerized actin was stained using F-Actin Visualization Biochem Kit (Cosmo Bio Co., Ltd.).
# An image of polymerized actin stained with rhodamine-phalloidin in the presence of varying concentrations of the polymerization inhibitor was confirmed.
molecule,measurement,setting,value
"[Cl-].[K+] [KCl, potassium chloride]",increase in luminescence intensity by KCl stimulation,"hippocampal nerve cells; fusion protein 1 expressed in nerve cells, compared to before addition of KCl",approximately 6 times
same,effect of stimulation on luminescence intensity,"hippocampal nerve cells; nerve cells expressing fusion protein 5, 50 mM KCl, alone or with additive",increases the luminescence intensity
C/C1=C/C(=O)O[C@@H]2C[C@@H](CC[C@H](C)/C=C\C=C\CC1)O[C@@](O)([C@@H]1CSC(=O)N1)C2 [latrunculin A],luminescence of split luciferase-actin probe,actin polymerization,decreased in a concentration-dependent manner
same,polymerized actin (rhodamine-phalloidin staining),polymerized actin,decreased in a concentration-dependent manner
"wild-type luciferase: wild-type firefly luciferase (Promega Corp.), control experiment",response of luminescence to KCl,"hippocampal nerve cells; probe expressed in nerve cells, KCl stimulation",does not exhibit the response to KCl
